Experimental data from ChEMBL document CHEMBL5257096, “Accelerating Drug Discovery: Synthesis of Complex Chemotypes via Multicomponent Reactions” (ACS Med Chem Lett, 2023).

Target: Isocitrate dehydrogenase [NADP] cytoplasmic (Homo sapiens, UniProt O75874, R132H)
Assay: Inhibition of IDH1 R132H mutant (unknown origin)

Sequence of Isocitrate dehydrogenase [NADP] cytoplasmic (O75874 2-414 R132H limits assumed): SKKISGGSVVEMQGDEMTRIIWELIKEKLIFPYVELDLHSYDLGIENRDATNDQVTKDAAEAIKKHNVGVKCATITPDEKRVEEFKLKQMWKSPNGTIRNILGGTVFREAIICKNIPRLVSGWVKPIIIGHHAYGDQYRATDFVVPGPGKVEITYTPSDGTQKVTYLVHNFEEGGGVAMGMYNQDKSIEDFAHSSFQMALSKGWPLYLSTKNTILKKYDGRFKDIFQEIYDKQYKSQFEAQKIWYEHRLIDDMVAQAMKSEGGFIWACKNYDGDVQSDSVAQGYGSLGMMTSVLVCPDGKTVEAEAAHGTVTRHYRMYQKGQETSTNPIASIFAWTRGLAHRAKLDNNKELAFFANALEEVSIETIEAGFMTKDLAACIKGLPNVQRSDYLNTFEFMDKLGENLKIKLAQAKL

IC50: > 11 µM
SMILES: O=C(NC1CCCCC1)[C@@H](c1ccccc1)N(C(=O)Cc1cccs1)c1cccc(F)c1
